Legend:
[1] = tested on: aggression in mice; details: Ito 1981; cited from earlier work
[2] = tested on: anti-noradrenergic effects; details: Ito 1981; cited from earlier work
[3] = tested on: narcosis; details: mice; U.S. Pat. No. 4,322,346; cited from earlier work
[4] = tested on: muricide (mouse killing behavior) in rats; details: Ito 1981; cited from earlier work
[5] = tested on: central BZ receptors; details: cited from earlier work
[6] = molecular target: peripheral BZ receptors (Homo sapiens, UniProt P30536); details: cited from earlier work
[7] = tested on: apomorphine-induced hypothermia, stereotypies and climbing; experiment: Low Dose Apomorphine Test in the mouse; assay type: in vivo; details: for STEREOTYPY (intensity score), 20 min after apomorphine, mean ± s.e.m. / STEREOTYPY (intensity score), 50 min after apomorphine, mean ± s.e.m.: 4 point scale (0-3); for CLIMBING (No. of mice), 20 minutes after apomorphine / CLIMBING (No. of mice), 50 minutes after apomorphine: 6 mice per group; for Rectal Temperature, 30 min after apomorphine, mean ± s.e.m. / Rectal Temperature, 60 min after apomorphine, mean ± s.e.m. / Rectal Temperature, before apomorphine, mean ± s.e.m.: mouse; for Rectal Temperature, 30 min after apomorphine, mean change from control / Rectal Temperature, 60 min after apomorphine, mean change from control / STEREOTYPY (intensity score), 20 min after apomorphine, mean change from control / STEREOTYPY (intensity score), 50 min after apomorphine, mean change from control: vs vehicle; for Rectal Temperature, before apomorphine, mean ± s.e.m.: 30 min after test substance
Excerpt: Racemic tofisopam, (R)-tofisopam and (S)-tofisopam were investigated in the Low Dose Apomorphine Test in the mouse to evaluate their pro- or anti-dopaminergic activity following intraperitoneal (i.p.) administration of apomorphine. Apomorphine, at a low dose, induces hypothermia, stereotypies and climbing. All three of these symptoms are potentiated by dopaminergic agonists and antagonized by dopamine antagonists, such as classical neuroleptics. The Low Dose Apomorphine Test, thus serves to detect pro- or antidopaminergic activity. The test was performed according to the protocols described by Chermat and Poncelet. See, Chermat R., Poncelet M., “Antagonisme des redressements, des stéréotypies et de l'hypotheimie induits par 1 ou 16 mg.kg-1 d'apomorphine,” J. Pharmacol., 14, 93-97, 1983.
Male mice of Rj: NMRI strain, 23-26 g body weight range were supplied by Elevage Janvier, 53940 Le Genest-Saint-Isle, France. The animals were delivered to the laboratory at least 3 days before the experiment and, upon arrival, were housed 10 per cage in macrolon cages (25×19×13 cm) containing wood shavings (Litalabo-SPPS, 95100 Argenteuil, France) with free access to food (UAR 113-UAR, 91360 Epinay-sur-Orge, France) and tap water (i.e. non-fasted) until tested. The animal house was maintained under artificial lighting (12 hours) between 7.00 and 19.00 in a controlled ambient temperature of 21±1° C., and relative humidity maintained at 40-70%.
The different treatments were equally distributed between the animals. During the experiment, each animal within a cage received the same treatment. Animals within a cage were individually marked on the tail with an indelible pen.
The experiment was conducted blind with treatment vials labeled A, B, C etc., according to a standardized coding procedure. The evaluation of the different treatments was balanced over time by testing successive series of individual animals from each treatment group in a fixed rotation (A, B, C, etc.). Animals were sacrificed at the end of the experiment by exposure to CO2.
Three compounds, racemic tofisopam, (R)-tofisopam and (S)-tofisopam were tested in the Low Dose Apomorphine Test. Each of these three compounds was dosed as a dispersion in 0.2% hydroxypropylmethylcellulose (HPMC) (Sigma), in sterile physiological saline (Laboratoire Aguettant).
Two reference standards were also dosed. Bromocriptine, methanesulfonate (Sigma), a known dopamine agonist, and haloperidol (Sigma), a known dopamine antagonist, were dispersed in 0.2% HPMC in sterile physiological saline.
Apomorphine hydrochloride, the dopamine mimetic employed in the assay, was dissolved in water for injectable preparation (Laboratoire Aguettant). Dosing: All of the dosed substances were administered in a volume of 10 ml/kg. The doses are expressed in mg/kg of supplied substance.
6 mice were studied per group. The test was performed blind.
Racemic tofisopam, (R)-tofisopam and (S)-tofisopam were administered at doses of 16, 32 and 64 mg/kg, administered intraperitonealy (i.p.), 30 minutes prior to administration of apomorphine.
The rectal temperature of the mice was measured prior to apomorphine dosing using a rectal probe (Physitemp Instruments Digital Laboratory Thermometer Model BAT-12). The mice were then placed in individual Plexiglas cages (10×6×4 cm) attached with the opening against a vertical wire grid.
The mice were then injected subcutaneously (s.c.) with apomorphine (1 mg/kg). Rectal temperature was measured 30 and 60 minutes after the injection of apomorphine.
The intensity of stereotypies (sniffing, licking, gnawing), were scored at 20 minutes and 50 minutes after injection of apomorphine on a 4 point scale (0-3). The presence (1) or absence (0) of climbing against the wire grid wall, were also assessed 20 and 50 minutes after injection of apomorphine.
The reference standards bromocriptine (16 mg/kg) and haloperidol (0.5 mg/kg), were administered under the same experimental conditions.

[8] = 16 mg/kg i.p. 30 min before apomorphine 1 mg/kg s.c.
[9] = 32 mg/kg i.p. 30 min before apomorphine 1 mg/kg s.c.
[10] = 64 mg/kg i.p. 30 min before apomorphine 1 mg/kg s.c.

Sequence of peripheral BZ receptors (P30536 whole entry): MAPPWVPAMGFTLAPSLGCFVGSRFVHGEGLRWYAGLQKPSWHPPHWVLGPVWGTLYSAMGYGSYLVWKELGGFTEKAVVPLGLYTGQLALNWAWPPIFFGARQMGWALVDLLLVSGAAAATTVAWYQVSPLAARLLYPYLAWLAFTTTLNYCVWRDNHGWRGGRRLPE

In the case of `CCC1C(C)=NN=C(c2ccc(O)c(OC)c2)c2cc(OC)c(OC)cc21` (centres unmarked) [1-(3-Methoxy-4-hydroxyphenyl)-4-methyl-5-ethyl-7,8-dimethoxy-5H-2,3-benzodiazepine], the “inhibition of aggression in mice” value [1] is listed as 0%, the antinoradrenergic effect [2] is listed as “a measurable antinoradrenergic effect” and the narcosis-potentiating activity [3] is listed as “narcosis-potentiating activity”. For the same compound, the inhibition of muricide [4] was 0%.
For `CCC1C(C)=NN=C(c2ccc(OC)c(OC)c2)c2cc(OC)c(OC)cc21` (racemic) [Racemic tofisopam, racemic-1-(3,4-dimethoxyphenyl)-4-methyl-5-ethyl-7,8-dimethoxy-5H-2,3-benzodiazepine], the “interaction with central BZ receptors” value [5] is listed as “does not interact”, the “binding to peripheral BZ receptors” value [6] is listed as “binds only weakly” and the “STEREOTYPY (intensity score), 20 min after apomorphine, mean ± s.e.m.” value [7, 8] is listed as 3.0 ± 0.0. The “STEREOTYPY (intensity score), 50 min after apomorphine, mean ± s.e.m.” value [7, 8] was 0.7 ± 0.2, the “CLIMBING (No. of mice), 20 minutes after apomorphine” value (“CLIMBING (No. of mice), 20 minutes” for short) [7, 8] was 6 No. of mice and the “CLIMBING (No. of mice), 50 minutes after apomorphine” value (shortened to “CLIMBING (No. of mice), 50 minutes”) [7, 8] was 3 No. of mice. The “Rectal Temperature, 30 min after apomorphine, mean ± s.e.m.” value [7, 8] was 35.3 ± 0.6 °C, the “Rectal Temperature, 60 min after apomorphine, mean ± s.e.m.” value [7, 8] was 36.9 ± 0.3 °C and the “Rectal Temperature, 30 min after apomorphine, mean change from control” value [7, 8] was “+0.2 °C”. For the same compound, the “Rectal Temperature, 60 min after apomorphine, mean change from control” value [7, 8] was “+0.2 °C”, the “STEREOTYPY (intensity score), 20 min after apomorphine, mean change from control” value [7, 8] was “+0.8” and the “STEREOTYPY (intensity score), 50 min after apomorphine, mean change from control” value [7, 8] was −0.3. The “Rectal Temperature, before apomorphine, mean ± s.e.m.” value ([7]; 16 mg/kg i.p.) was 37.3 ± 0.1 °C, the “STEREOTYPY (intensity score), 20 min after apomorphine, mean ± s.e.m.” value [7, 9] was 2.8 ± 0.2 and the “STEREOTYPY (intensity score), 50 min after apomorphine, mean ± s.e.m.” value [7, 9] was 0.8 ± 0.3. For the same compound, the “CLIMBING (No. of mice), 20 minutes” value [7, 9] was 6 No. of mice, the “CLIMBING (No. of mice), 50 minutes” value [7, 9] was 5 No. of mice and the “Rectal Temperature, 30 min after apomorphine, mean ± s.e.m.” value [7, 9] was 34.3 ± 0.5 °C. For the same compound, the “Rectal Temperature, 60 min after apomorphine, mean ± s.e.m.” value [7, 9] was 36.6 ± 0.3 °C, the “Rectal Temperature, 30 min after apomorphine, mean change from control” value [7, 9] was −0.8 °C and the “Rectal Temperature, 60 min after apomorphine, mean change from control” value [7, 9] was −0.1 °C. For the same compound, the “STEREOTYPY (intensity score), 20 min after apomorphine, mean change from control” value [7, 9] was “+0.6”, the “STEREOTYPY (intensity score), 50 min after apomorphine, mean change from control” value [7, 9] was −0.2 and the “Rectal Temperature, before apomorphine, mean ± s.e.m.” value ([7]; 32 mg/kg i.p.) was 37.1 ± 0.2 °C. For the same compound, the “STEREOTYPY (intensity score), 20 min after apomorphine, mean ± s.e.m.” value [7, 10] was 2.3 ± 0.2, the “STEREOTYPY (intensity score), 50 min after apomorphine, mean ± s.e.m.” value [7, 10] was 1.3 ± 0.2 and the “CLIMBING (No. of mice), 20 minutes” value [7, 10] was 6 No. of mice. For the same compound, the “CLIMBING (No. of mice), 50 minutes” value [7, 10] was 4 No. of mice, the “Rectal Temperature, 30 min after apomorphine, mean ± s.e.m.” value [7, 10] was 33.9 ± 0.5 °C and the “Rectal Temperature, 60 min after apomorphine, mean ± s.e.m.” value [7, 10] was 36.3 ± 0.3 °C. The “Rectal Temperature, 30 min after apomorphine, mean change from control” value [7, 10] was −1.2 °C, the “Rectal Temperature, 60 min after apomorphine, mean change from control” value [7, 10] was −0.4 °C and the “STEREOTYPY (intensity score), 20 min after apomorphine, mean change from control” value [7, 10] was “+0.1”. For the same compound, the “STEREOTYPY (intensity score), 50 min after apomorphine, mean change from control” value [7, 10] was “+0.3”, the “Rectal Temperature, before apomorphine, mean ± s.e.m.” value ([7]; 64 mg/kg i.p.) was 37.2 ± 0.2 °C and the “behaviour on apomorphine-induced hypothermia (rectal temperature)” value ([7]; 64 mg/kg, thirty and sixty minute time points, trend not statistically significant) was “weak dopamine antagonist”. For the same compound, the “behaviour on apomorphine-induced stereotypies” value ([7]; 16 and 32 mg/kg, twenty minute time point, significant only at 16 mg/kg) was “strong dopamine agonist”.
For `CCC1C(C)=NN=C(c2ccc(O)c(OC)c2)c2cc(OC)c(O)cc21` (centres unmarked) [1-(3-Methoxy-4-hydroxyphenyl)-4-methyl-5-ethyl-7-hydroxy-8-methoxy-5H-2,3-benzodiazepine], the “inhibition of aggression in mice” value [1] is given as 28.6%, the antinoradrenergic effect [2] is given as “a measurable antinoradrenergic effect” and the inhibition of muricide [4] is given as 20%.
In the case of `CCC1C(C)=NN=C(c2ccc(OC)c(OC)c2)c2cc(OC)c(O)cc21` (centres unmarked) [1-(3,4-Dimethoxyphenyl)-4-methyl-5-ethyl-7-hydroxy-8-methoxy-5H-2,3-benzodiazepine], the “inhibition of aggression in mice” value [1] is given as 0%, the antinoradrenergic effect [2] is given as “no antinoradrenergic effect” and the inhibition of muricide [4] is given as 20%.
